Values of other authors in patent US20040180034A1, “Anthelmintic resinates and a method for their preparation” (priority 2003, published 2004).

Compound: O=C(C1CCCCC1)N1CC(=O)N2CCc3ccccc3C2C1 (centres unmarked) [Praziquantel, 4H-Pyrazino[2,1-a]isoquinolin-4-one, 2-(cyclohexylcarbonyl)-1,2,3,6,7,11b-hexahydro-(9CI)]
- cats experiencing weakness, salivation, or nausea (after injection): approximately one cat in ten
- animals experiencing nausea (oral form): at least one out of twenty
